Experimental data as given in patent publication US20210391038A1, “SPECIFICALLY-SHAPED CRYSTAL OF COMPOUND AND METHOD FOR PRODUCING SAME” (TOWA PHARMACEUTICAL CO., LTD., priority 2018, published 2021).
Where a name gives a salt, the structure may show the parent alone.

What was measured:
Assay type in all cases: physicochemical
[1] = Sphericity from SEM images (ImageJ); set-up: key: 1 = true sphere; closer to 1 = more spherical; mean of ≥5 particles; details: SEM image analysis, mean of particles
Excerpt: In the present description, “spherulite” means a crystal aggregate (polycrystal) which has a radial or concentric thin layered structure and has a spherical outer shape. Whether the crystal obtained by the method of the present invention is a spherulite or not can be determined, for example, by observing the outer shape of the crystal using SEM. For example, it can be discriminated by cutting the crystal aggregate and observing the internal structure thereof using SEM. The sphericity of the spherulite obtained by the method of the present invention is usually 0.60 or more, preferably 0.70 or more, more preferably 0.80 or more, particularly preferably 0.90 or more, and most preferably 0.95 or more. The sphericity can be calculated by the following method.
When an image of particles taken by SEM is analyzed using image processing software ImageJ, a coordinate group representing the position of pixels forming the outline of a particle is obtained. The length of the coordinate group is defined as N, and one pixel coordinate of each outline is defined as p[i] (1≤i≤N). The angle between a straight line l(k) connecting two points p[k] and p[k+N/D] and a straight line m(k) connecting two points p[k+N/D] and p[k+2N/D] is defined as θ(k) (−180°<θ<180°) (1≤k≤N, 1≤D≤N). D corresponds to the number of partitions of the outline. When N/D is not a natural number, the value is defined as the quotient obtained by dividing N by D. By calculating this angle with k=1 to N, N pieces of θ value can be obtained.
When the particle is a true sphere, θ(k) is 360/D, and the closer the particle is to a true sphere, the closer θ(k) is to this value. The error between θ(k) and the true value 360/D is evaluated by the root-mean-square error (RMSE) of the following formula:
Using the RMSE value of when D is 10 (θ(k)=36°), the sphericity is defined by the following formula: […]
The sphericity is 1 in a true sphere, and the closer the particle is to a true sphere, the closer the sphericity is to 1. Meanwhile, the sphericity of an ellipse whose long axis is infinitely long is zero. The sphericity is measured for five or more particles to calculate the mean. This mean is defined as the sphericity of each sample (see FIGS. 42 and 43).

[2] = Particle size from SEM images (equivalent circle diameter, mean particle size, crystal size); details: for equivalent circle diameter: SEM image, ImageJ, trihydrate
Experimental: “Equivalent circle diameter” in the present description is a diameter of a perfect circle corresponding to the area of individual particles in an image of particles taken by SEM, and is calculated from randomly selected 5 to 800 particles using image processing software ImageJ. The equivalent circle diameter of a spherulite obtained by the method of the present invention is preferably 25 μm or more, 30 μm or more, 35 μm or more, 40 μm or more, 45 μm or more, or 50 μm or more and 100 μm or less, 120 μm or less, 150 μm or less, 200 μm or less, 250 μm or less, 300 μm or less, 500 μm or less, or 1,000 μm or less. More preferably, the equivalent circle diameter is 25 to 500 μm or 30 to 300 μm.
The particle size distribution was measured in a dry manner using a spray particle size distribution analyzer AEROTRAC LDSA-SPR3500A manufactured by Microtrac Inc. The particle size distribution in Examples 2 and 7 was measured in a dry manner using a laser diffraction particle size distribution measurement MASTERSIZER 3000 manufactured by Malvern Panalytical Ltd. SEM images were measured using a scanning electron microscope JSM-IT100 manufactured by JEOL Ltd. Light microscope images were measured using an upright microscope BX53M manufactured by Olympus Corporation and a microscope digital camera DP74 manufactured by Olympus Corporation. Images for measuring the number of particles were obtained by a scanner GT-X830 manufactured by SEIKO EPSON CORPORATION. The powder X-ray diffraction (XRD) was measured using a desktop X-ray diffraction device MiniFlex300 manufactured by Rigaku Corporation. The specific surface area was measured by the BET fluid process (gas used: pure nitrogen) using a fully automatic specific surface area measuring device Macsorb HM-1208 manufactured by Mountech Co., Ltd. The moisture content was measured using a trace moisture measuring device AQ-2200 manufactured by […] SANGYO Co., Ltd. The dissolution profile was measured using μDISS Profiler manufactured by Pion Inc. Centrifugal classification was performed using a high-efficiency precision forced air classifier Lab Calssiel N-01 manufactured by SEISHIN […] Co., Ltd. Image analysis was performed using image processing software ImageJ developed by the National Institute of Health (NIH). The particle strength was measured using a particle hardness measuring device NEW GRANO manufactured by OKADA SEIKO CO., LTD. The true density was measured using a dry automatic densimeter AccuPyc II 1340-10CC manufactured by Shimadzu Corporation. The purity of a compound was measured by a high performance liquid chromatograph (LC-20A) manufactured by Shimadzu Corporation.
The spherulite of azithromycin monohydrate produced in Example 12 was cut, and the section was observed by SEM (FIG. 4). The crystal size at the outer edge was 5 to 10 μm, while the crystal size at the center was 0.2 to 1 μm.

[3] = Measurement of critical degree of supersaturation of spherulite; details: entry 19; solvent 1 EtOH, solvent 2 H2O, solvent 2/solvent 1 ratio 1; crystallization 35 °C
Excerpt: “Supersaturated solution” in the present description means a solution in a state of containing a solute exceeding the solubility. As the degree of supersaturation, “degree of supersaturation” can be used. Regarding the degree of supersaturation, when the concentration (mass concentration (g/g)) of a compound dissolved in a supersaturated solution is defined as C and the solubility of the compound is defined as Cs, the degree of supersaturation S can be represented by the following formula: […]
“Critical degree of supersaturation” in the present description means the lowest degree of supersaturation required to obtain a specifically-shaped crystal. […] The value of a critical degree of supersaturation varies depending on the shape of a crystal. For example, all of values of a critical degree of supersaturation required to obtain a plate crystal, a critical degree of supersaturation required to obtain a needle crystal, and a critical degree of supersaturation required to obtain a spherulite are different. The critical degree of supersaturation required to obtain a spherulite is higher than the critical degree of supersaturation required to obtain a plate crystal or a needle crystal.
The actual measured value of the critical degree of supersaturation (S*) can be measured as follows:
(1) 100 particles are observed by SEM. (2) 5 to 10 particles whose shape is close to a desired specific shape are selected, and the shape is evaluated. In particular, when the desired specific shape is a sphere, the sphericity is evaluated. (3) Based on the evaluation index of the shape, whether the selected particles have the desired specific shape or not is determined. In particular, when the desired specific shape is a sphere, the case where the sphericity is 0.60 or more is determined as a spherulite. (4) The above-mentioned operation is performed for each sample having a different degree of supersaturation during crystallization, and the minimum value of a degree of supersaturation having the specifically-shaped particles is determined as the critical degree of supersaturation. The difference between the maximum value of a degree of supersaturation not having the specifically-shaped particles and the critical degree of supersaturation should be 20% or less.
The critical degree of supersaturation of a spherulite of ketotifen fumarate was determined as follows. To 2.0 g of ketotifen fumarate, 10 mL (5 v/w) of methanol was added, followed by reflux to completely dissolve. This solution was added dropwise to 50 mL of isopropanol at 20° C. to prepare a supersaturated solution of ketotifen fumarate. The degree of supersaturation of the supersaturated solution at the end of dropwise addition was 9.0. The supersaturated solution was crystallized. The crystal was collected by filtration, followed by drying under reduced pressure at 40° C., thus obtaining a crystal of ketotifen fumarate.
Similarly, when a substrate and a solvent different from those mentioned above are used, a plurality of samples having a different degree of supersaturation are prepared and crystallized, and then the critical degree of supersaturation of the spherulite was measured.

[4] = Particle density, true density and particle packing rate
Experimental: “Particle density” in the present description is mass per unit volume when the volume of the substance itself as well as the volume of the open void and the closed void are included as the volume of polycrystalline particles. For example, when the polycrystalline particles are spherical particles, the particle density is calculated by the following formula using the mean mass of the polycrystalline particles and the mean volume of the polycrystalline particles:
Here, the mean mass of polycrystalline particles is calculated by measuring the number of polycrystalline particles contained in 1.0 mg or more, preferably 5.0 mg or more, and more preferably 10.0 mg or more of a sample by a scanner, etc. The mean volume of crystal particles is obtained by averaging the volume calculated by photographing 500 or more, preferably 1,000 or more, and more preferably 5,000 or more crystal particles by a light microscope, etc., using an equivalent circle diameter obtained from the projected area of polycrystalline particles, and assuming that the polycrystalline particles are true spheres. At this time, it is desirable that the distribution of the equivalent circle diameter is unimodal and the sharpness value is less than 1.5.
“Particle packing rate” of a polycrystal in the present description is a value calculated by the following formula:
Particle packing rate (%)=(particle density)/(true density of compound)×100 [Equation 8]
Here, “true density of compound” is a density of a substance itself not including a void. If no void exists at all inside or on the surface of a particle, the particle packing rate is 100%. The true density of a compound can be obtained by dry density measurement by the constant volume expansion method. Examples of the measuring device include a dry automatic densimeter AccuPyc II 1340-10CC manufactured by Shimadzu Corporation.
The particle size distribution was measured in a dry manner using a spray particle size distribution analyzer AEROTRAC LDSA-SPR3500A manufactured by Microtrac Inc. The particle size distribution in Examples 2 and 7 was measured in a dry manner using a laser diffraction particle size distribution measurement MASTERSIZER 3000 manufactured by Malvern Panalytical Ltd. SEM images were measured using a scanning electron microscope JSM-IT100 manufactured by JEOL Ltd. Light microscope images were measured using an upright microscope BX53M manufactured by Olympus Corporation and a microscope digital camera DP74 manufactured by Olympus Corporation. Images for measuring the number of particles were obtained by a scanner GT-X830 manufactured by SEIKO EPSON CORPORATION. The powder X-ray diffraction (XRD) was measured using a desktop X-ray diffraction device MiniFlex300 manufactured by Rigaku Corporation. The specific surface area was measured by the BET fluid process (gas used: pure nitrogen) using a fully automatic specific surface area measuring device Macsorb HM-1208 manufactured by Mountech Co., Ltd. The moisture content was measured using a trace moisture measuring device AQ-2200 manufactured by […] SANGYO Co., Ltd. The dissolution profile was measured using μDISS Profiler manufactured by Pion Inc. Centrifugal classification was performed using a high-efficiency precision forced air classifier Lab Calssiel N-01 manufactured by SEISHIN […] Co., Ltd. Image analysis was performed using image processing software ImageJ developed by the National Institute of Health (NIH). The particle strength was measured using a particle hardness measuring device NEW GRANO manufactured by OKADA SEIKO CO., LTD. The true density was measured using a dry automatic densimeter AccuPyc II 1340-10CC manufactured by Shimadzu Corporation. The purity of a compound was measured by a high performance liquid chromatograph (LC-20A) manufactured by Shimadzu Corporation. […]

For Cc1ccccc1C(=O)Nc1ccc(C(=O)N2CCCC(O)c3cc(Cl)ccc32)c(C)c1 (centres unmarked) [Example 28, tolvaptan], the “sphericity of the spherulite” value [1] was 0.94±0.02 and the mean particle size [2] was 145 μm.
With COc1cccc(C2(O)CCCCC2CN(C)C)c1 (centres unmarked) [Example 29, tramadol hydrochloride] the “sphericity of the spherulite” value [1] was 0.90±0.08 and the mean particle size [2] was 319 μm.
With COc1ccc2[n-]c([S@@+]([O-])Cc3ncc(C)c(OC)c3C)nc2c1.COc1ccc2[n-]c([S@@+]([O-])Cc3ncc(C)c(OC)c3C)nc2c1.O.O.O.[Mg+2] [Esomeprazole magnesium trihydrate] the “Critical degree of supersaturation S Experimental value” [3] was 1.6 and the true density [4] was 1.37 g/mL.
For COc1ccc2[n-]c([S@@+]([O-])Cc3ncc(C)c(OC)c3C)nc2c1.COc1ccc2[n-]c([S@@+]([O-])Cc3ncc(C)c(OC)c3C)nc2c1.O.O.O.[Mg+2] [Example 4, esomeprazole magnesium trihydrate], the “sphericity of the spherulite” value ([1]; trihydrate) was 0.93±0.02 and the equivalent circle diameter [2] was 183±8 μm.
In the case of CN(C)CC/C=C1/c2ccccc2COc2ccc(CC(=O)O)cc21 [Example 31, olopatadine], the “sphericity of the spherulite” value [1] is reported as 0.96±0.02 and the mean particle size [2] is reported as 167 μm.
For COc1ccc2[n-]c([S@@+]([O-])Cc3ncc(C)c(OC)c3C)nc2c1.COc1ccc2[n-]c([S@@+]([O-])Cc3ncc(C)c(OC)c3C)nc2c1.O.O.O.[Mg+2] [Example 3, esomeprazole magnesium trihydrate], the “sphericity of the spherulite” value ([1]; trihydrate) was 0.97±0.01 and the equivalent circle diameter [2] was 58±7 μm.
For COc1ccc2[n-]c([S@@+]([O-])Cc3ncc(C)c(OC)c3C)nc2c1.COc1ccc2[n-]c([S@@+]([O-])Cc3ncc(C)c(OC)c3C)nc2c1.O.O.O.[Mg+2] [Sample 1, esomeprazole magnesium trihydrate], the Particle packing rate ([4]; particle density / true density x 100, trihydrate) was 54% and the Particle density ([4]; trihydrate) was 0.74 g/mL.
